Reference: paper PMC9090415, “Discovery of small molecule inhibitors of Plasmodium falciparum apicoplast DNA polymerase” (Journal of Enzyme Inhibition and Medicinal Chemistry, 2022)

Target: T1, bacteriophage T4 DNA polymerase (Enterobacteria phage T4, UniProt P04415)
T1 construct: made in house
T1 sequence (P04415 1-898): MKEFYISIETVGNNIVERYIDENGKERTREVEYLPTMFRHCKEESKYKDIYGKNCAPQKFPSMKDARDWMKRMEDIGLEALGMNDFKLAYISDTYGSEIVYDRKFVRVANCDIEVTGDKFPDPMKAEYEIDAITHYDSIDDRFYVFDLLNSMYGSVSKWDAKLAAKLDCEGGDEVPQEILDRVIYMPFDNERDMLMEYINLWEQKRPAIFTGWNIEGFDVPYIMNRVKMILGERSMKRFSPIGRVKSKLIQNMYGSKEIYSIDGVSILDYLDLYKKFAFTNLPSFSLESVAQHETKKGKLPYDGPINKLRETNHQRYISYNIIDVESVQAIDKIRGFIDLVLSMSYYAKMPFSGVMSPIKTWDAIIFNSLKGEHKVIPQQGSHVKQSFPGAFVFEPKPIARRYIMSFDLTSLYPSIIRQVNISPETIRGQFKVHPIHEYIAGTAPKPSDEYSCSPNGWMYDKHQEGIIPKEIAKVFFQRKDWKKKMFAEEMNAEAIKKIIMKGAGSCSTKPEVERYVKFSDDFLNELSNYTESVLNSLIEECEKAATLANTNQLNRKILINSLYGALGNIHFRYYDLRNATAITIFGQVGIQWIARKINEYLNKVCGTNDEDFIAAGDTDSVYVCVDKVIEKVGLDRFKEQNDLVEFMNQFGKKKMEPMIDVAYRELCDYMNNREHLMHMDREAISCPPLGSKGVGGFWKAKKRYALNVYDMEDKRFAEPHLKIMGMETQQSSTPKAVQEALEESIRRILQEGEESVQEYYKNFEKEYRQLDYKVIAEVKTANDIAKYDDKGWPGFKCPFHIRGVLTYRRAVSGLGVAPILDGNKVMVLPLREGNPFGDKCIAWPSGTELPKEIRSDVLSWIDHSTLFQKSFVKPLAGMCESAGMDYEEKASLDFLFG
Assay: Counter-screen against bacteriophage T4 DNA polymerase
Format: biochemical
Conditions: for % inhibition T4 10' 2.5 / % inhibition T4 10' 5 / % inhibition T4 10' 10 / % inhibition T4 10' 20 / % inhibition T4 10' 40 / % inhibition T4 10' 80: read at 10'; for % inhibition T4 70' 2.5 / % inhibition T4 70' 5 / % inhibition T4 70' 10 / % inhibition T4 70' 20 / % inhibition T4 70' 40 / % inhibition T4 70' 80: read at 70'; for % inhibition T4 130' 2.5 / % inhibition T4 130' 5 / % inhibition T4 130' 10 / % inhibition T4 130' 20 / % inhibition T4 130' 40 / % inhibition T4 130' 80: read at 130'; for % inhibition T4 40' 2.5 / % inhibition T4 40' 5 / % inhibition T4 40' 10 / % inhibition T4 40' 20 / % inhibition T4 40' 40 / % inhibition T4 40' 80: read at 40'; for % inhibition T4 90' 2.5 / % inhibition T4 90' 5 / % inhibition T4 90' 10 / % inhibition T4 90' 20 / % inhibition T4 90' 40 / % inhibition T4 90' 80: read at 90'; for % inhibition T4 180' 2.5 / % inhibition T4 180' 5 / % inhibition T4 180' 10 / % inhibition T4 180' 20 / % inhibition T4 180' 40 / % inhibition T4 180' 80: read at 180'
How it was run: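 IC50 values come from dose-response testing of each compound against T4 DNA polymerase. This B-family polymerase was purified in-house and used as the counter-screen.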

O=C(Cn1ccc2c(=O)[nH]ccc21)Nc1cc(F)ccc1F [Molecule 42, O=C(Cn1ccc2c1cc[nH]c2=O)Nc1cc(F)ccc1F]
% inhibition T4 10' (DRC-2, concentration 2.5): -1.82%
% inhibition T4 10' (DRC-2, concentration 5): -13%
% inhibition T4 10' (DRC-2, concentration 20): -4%
% inhibition T4 10' (DRC-2, concentration 80): -13%
% inhibition T4 40' (DRC-2, concentration 20): -4%
% inhibition T4 40' (DRC-2, concentration 80): -13%
% inhibition T4 180' (DRC-2, concentration 2.5): -1.82%
% inhibition T4 180' (DRC-2, concentration 80): -13%

Cn1nc(-c2nnc(-c3ccccc3F)o2)c2c1CCN(C(=O)c1ccccc1Cl)C2 [Molecule 34, Cn1nc(c2c1CCN(C2)C(=O)c1ccccc1Cl)c1nnc(o1)c1ccccc1F]
% inhibition T4 10' 2.5 (DRC-1, concentration 2.5): -0.603%
% inhibition T4 10' 5 (DRC-1, concentration 5): -0.853%
% inhibition T4 10' 10 (DRC-1, concentration 10): 3%
% inhibition T4 10' 20 (DRC-1, concentration 20): 1.06%
% inhibition T4 10' 40 (DRC-1, concentration 40): 1.22%
% inhibition T4 10' 80 (DRC-1, concentration 80): 31%
% inhibition T4 70' 2.5 (DRC-1, concentration 2.5): -2.57%
% inhibition T4 70' 5 (DRC-1, concentration 5): -4%
% inhibition T4 70' 10 (DRC-1, concentration 10): -2%
% inhibition T4 70' 20 (DRC-1, concentration 20): -2.24%
% inhibition T4 70' 40 (DRC-1, concentration 40): -0.925%
% inhibition T4 70' 80 (DRC-1, concentration 80): 28%
% inhibition T4 130' 2.5 (DRC-1, concentration 2.5): -4%
% inhibition T4 130' 5 (DRC-1, concentration 5): -4%
% inhibition T4 130' 10 (DRC-1, concentration 10): -2.33%
% inhibition T4 130' 20 (DRC-1, concentration 20): -2.59%
% inhibition T4 130' 40 (DRC-1, concentration 40): 0.922%
% inhibition T4 130' 80 (DRC-1, concentration 80): 22%
% inhibition T4 10' 2.5 (DRC-2, concentration 2.5): 0.487%
% inhibition T4 10' 5 (DRC-2, concentration 5): -4%
% inhibition T4 10' 10 (DRC-2, concentration 10): -3%
% inhibition T4 10' 20 (DRC-2, concentration 20): 1.3%
% inhibition T4 10' 40 (DRC-2, concentration 40): 3.35%
% inhibition T4 10' 80 (DRC-2, concentration 80): 11%
% inhibition T4 40' 2.5 (DRC-2, concentration 2.5): -0.945%
% inhibition T4 40' 5 (DRC-2, concentration 5): -3.75%
% inhibition T4 40' 10 (DRC-2, concentration 10): -3%
% inhibition T4 40' 20 (DRC-2, concentration 20): 0.863%
% inhibition T4 40' 40 (DRC-2, concentration 40): 3.24%
% inhibition T4 40' 80 (DRC-2, concentration 80): 12%
% inhibition T4 90' 2.5 (DRC-2, concentration 2.5): -0.872%
% inhibition T4 90' 5 (DRC-2, concentration 5): -3.55%
% inhibition T4 90' 10 (DRC-2, concentration 10): -2.12%
% inhibition T4 90' 20 (DRC-2, concentration 20): 0.601%
% inhibition T4 90' 40 (DRC-2, concentration 40): 1.62%
% inhibition T4 90' 80 (DRC-2, concentration 80): 10%
% inhibition T4 180' 2.5 (DRC-2, concentration 2.5): -4.68%
% inhibition T4 180' 5 (DRC-2, concentration 5): -7.58%
% inhibition T4 180' 10 (DRC-2, concentration 10): -5%
% inhibition T4 180' 20 (DRC-2, concentration 20): -3.78%
% inhibition T4 180' 40 (DRC-2, concentration 40): -2.41%
% inhibition T4 180' 80 (DRC-2, concentration 80): 6%

COc1ccc(-c2n[nH]cc2Oc2ccc(Cl)cc2)c(O)c1 [KU0029837]
% inhibition T4 10' (DRC-2, concentration 2.5): -22%
% inhibition T4 10' (DRC-2, concentration 5): -28%
% inhibition T4 10' (DRC-2, concentration 10): -25%
% inhibition T4 10' (DRC-2, concentration 20): -25%
% inhibition T4 10' (DRC-2, concentration 40): -19%
% inhibition T4 10' (DRC-2, concentration 80): -34%
% inhibition T4 40' (DRC-2, concentration 2.5): -22%
% inhibition T4 40' (DRC-2, concentration 5): -28%
% inhibition T4 40' (DRC-2, concentration 10): -25%
% inhibition T4 40' (DRC-2, concentration 20): -25%
% inhibition T4 40' (DRC-2, concentration 40): -19%
% inhibition T4 40' (DRC-2, concentration 80): -34%
% inhibition T4 90' (DRC-2, concentration 2.5): -22%
% inhibition T4 90' (DRC-2, concentration 10): -26%
% inhibition T4 90' (DRC-2, concentration 20): -25%
% inhibition T4 90' (DRC-2, concentration 80): -34%
% inhibition T4 180' (DRC-2, concentration 2.5): -26%
% inhibition T4 180' (DRC-2, concentration 10): -30%
% inhibition T4 180' (DRC-2, concentration 20): -30%

CC(C)CC(C(=O)O)N1C(=O)C2C3C=CC(C2C1=O)C1C(=O)N(C(CC(C)C)C(=O)O)C(=O)C31 (stereo not shown) [KU0193449]
% inhibition T4 10' 2.5 (DRC-1, concentration 2.5): 3.278%
% inhibition T4 10' 5 (DRC-1, concentration 5): 4.491%
% inhibition T4 10' 10 (DRC-1, concentration 10): 8.777%
% inhibition T4 10' 20 (DRC-1, concentration 20): 7.866%
% inhibition T4 10' 40 (DRC-1, concentration 40): 21.6809%
% inhibition T4 10' 80 (DRC-1, concentration 80): 52.1619%
% inhibition T4 70' 2.5 (DRC-1, concentration 2.5): 0.3673%
% inhibition T4 70' 5 (DRC-1, concentration 5): 1.3204%
% inhibition T4 70' 10 (DRC-1, concentration 10): 2.619%
% inhibition T4 70' 20 (DRC-1, concentration 20): 3.878%
% inhibition T4 70' 40 (DRC-1, concentration 40): 15.5336%
% inhibition T4 70' 80 (DRC-1, concentration 80): 40.8979%
% inhibition T4 130' 2.5 (DRC-1, concentration 2.5): -2.364%
% inhibition T4 130' 5 (DRC-1, concentration 5): -1.909%
% inhibition T4 130' 10 (DRC-1, concentration 10): -0.6043%
% inhibition T4 130' 20 (DRC-1, concentration 20): 0.2689%
% inhibition T4 130' 40 (DRC-1, concentration 40): 11.2312%
% inhibition T4 130' 80 (DRC-1, concentration 80): 34.0378%
% inhibition T4 10' 2.5 (DRC-2, concentration 2.5): 4.54%
% inhibition T4 10' 5 (DRC-2, concentration 5): 4.24%
% inhibition T4 10' 10 (DRC-2, concentration 10): 10%
% inhibition T4 10' 20 (DRC-2, concentration 20): 15%
% inhibition T4 10' 40 (DRC-2, concentration 40): 28%
% inhibition T4 10' 80 (DRC-2, concentration 80): 55%
% inhibition T4 40' 2.5 (DRC-2, concentration 2.5): 4.54%
% inhibition T4 40' 5 (DRC-2, concentration 5): 4.24%
% inhibition T4 40' 10 (DRC-2, concentration 10): 10%
% inhibition T4 40' 20 (DRC-2, concentration 20): 15%
% inhibition T4 40' 40 (DRC-2, concentration 40): 28%
% inhibition T4 40' 80 (DRC-2, concentration 80): 55%
% inhibition T4 90' 2.5 (DRC-2, concentration 2.5): 4%
% inhibition T4 90' 5 (DRC-2, concentration 5): 3%
% inhibition T4 90' 10 (DRC-2, concentration 10): 7%
% inhibition T4 90' 20 (DRC-2, concentration 20): 11%
% inhibition T4 90' 40 (DRC-2, concentration 40): 24%
% inhibition T4 90' 80 (DRC-2, concentration 80): 52%
% inhibition T4 180' 2.5 (DRC-2, concentration 2.5): -1%
% inhibition T4 180' 5 (DRC-2, concentration 5): -1.88%
% inhibition T4 180' 10 (DRC-2, concentration 10): 0.586%
% inhibition T4 180' 20 (DRC-2, concentration 20): 2.64%
% inhibition T4 180' 40 (DRC-2, concentration 40): 15%
% inhibition T4 180' 80 (DRC-2, concentration 80): 45%

Cc1ccc2c(C(=O)NCCc3cccnc3)cc(NC(=O)C(C)C)cc2n1 [KU0206096]
% inhibition T4 10' (DRC-2, concentration 5): 8%
% inhibition T4 10' (DRC-2, concentration 10): 30%
% inhibition T4 10' (DRC-2, concentration 80): 35%
% inhibition T4 40' (DRC-2, concentration 2.5): 8%
% inhibition T4 40' (DRC-2, concentration 20): 35%
% inhibition T4 90' (DRC-2, concentration 10): 28%
% inhibition T4 90' (DRC-2, concentration 20): 30%
% inhibition T4 90' (DRC-2, concentration 40): 34%
% inhibition T4 180' (DRC-2, concentration 40): 28%
% inhibition T4 180' (DRC-2, concentration 80): 34%
